Measured values reported in PMC4689404, “2-Benzazolyl-4-Piperazin-1-Ylsulfonylbenzenecarbohydroxamic Acids as Novel Selective Histone Deacetylase-6 Inhibitors with Antiproliferative Activity” (PLoS ONE, 2015).
Like-named read-outs stand apart in the source and are kept apart here. One block for each compound: values may come before it.

What was measured:
HCC4017 = experiment: MTS viability assay; assay type: cell-based, human; settings: for IC50: Patient A cancer line, MTS, 4 days, read-out: Antiproliferative activity IC50, HCC4017; for Selectivity (HBEC-30KT vs HCC4017): Patient A
Experimental: (§1) Immortalized normal human bronchial epithelial cells (also provided by Dr. John D. Minna) were cultured in KSFM supplemented with pituitary extract and EGF. For viability assays, cells were plated on 96 well plates and grown overnight. Cells were then exposed to increasing doses of the indicated compounds for 4 days and their viability assayed using the Promega Cell Titer 96 AQueous One kit per the manufacturer’s protocol. All doses were tested in 4–8 replicates. IC50 values were calculated using the in-house software DIVISA.

HCC4018 = experiment: MTS viability assay; assay type: cell-based, human; settings: for IC50: Patient B cancer line, MTS, 4 days, read-out: Antiproliferative activity IC50, HCC4018; for Selectivity (HBEC-34KT vs HCC4018): Patient B
Experimental: as §1

HBEC-34KT = experiment: MTS viability assay; assay type: cell-based, human; settings: Patient B normal line, 4 days, read-out: Antiproliferative activity IC50, HBEC-34KT
Experimental: as §1, with “Lung cancer cells (kindly provided by Dr. John D. Minna, [13, 21]) were maintained in RPMI 1640 media supplemented with 10% FBS. Immortalized” for “Immortalized”

HBEC-30KT = experiment: MTS viability assay; assay type: cell-based, human; settings: Patient A normal line, 4 days, read-out: Antiproliferative activity IC50, HBEC-30KT
Experimental: as §1, with “Lung cancer cells (kindly provided by Dr. John D. Minna, [13, 21]) were maintained in RPMI 1640 media supplemented with 10% FBS. Immortalized” for “Immortalized”

[1] = test system: epigenetically silenced GFP transgene in LDR cells; experiment: locus derepression (LDR) assay, GFP induction; assay type: cell-based; parameters: key to GFP Induc.: -: —negative; settings: for GFP Induc.: Fig 4
Experimental: LDR cells were maintained in DMEM with L-glutamine and high glucose, 1 mM sodium pyruvate, 0.1 mM MEM non-essential amino acids, 1% v/v penicillin-streptomycin and 10% heat inactivated FBS. Cells were seeded on glass bottom chambers at low-medium density and allowed to attach overnight. Compounds were then added for 24h at the indicated dose and cells were imaged under a fluorescent microscope equipped with a camera using a 20 or 40X objective. All images shown were exposed for identical time.

[2] = target: T1, partially purified HDAC1 from mouse A20 cells (Mus musculus, UniProt O09106); experiment: HDAC1 activity assay, partially purified enzyme, [3H]acetate-prelabeled histones; assay type: biochemical; settings: Table 3; partially purified HDAC1; read-out: HDAC1 IC50
T1 construct: from mouse A20 cells was used as enzyme source; endogenous in cells; host or cells: mouse A20 cells
From the text: For inhibition assays, partially purified HDAC1 (70–80 fold enriched relative to crude samples) from mouse A20 cells was used as enzyme source. HDAC1 activity was purified by a combination of anion exchange chromatography (Mono Q), affinity chromatography (Poly-lysin agarose, Heparin Sepharose) and TSK size exclusion chromatography (Jesacher and Loidl, unpublished). HDAC1 protein was identified by immunoblotting using anti mouse HDAC1 antibodies (collaboration with Zymed Laboratories, Inc., San Francisco, California, USA). HDAC activity was determined as described by Sendra et al., [20] using [^3H]acetate-prelabeled chicken reticulocyte histones as substrate. 50 μL of mouse HDAC1 were incubated with different concentrations of compounds for 10 min on ice and 10 μL of total [^3H] acetate pre-labeled chicken reticulocyte histones (4 mg/mL) were added, resulting in a concentration of 41 μM. This mixture was incubated at 37°C for 1 h. The reaction was stopped by addition of 50 μL of 1 M HCl/0.4 M acetylacetate and 1 mL ethylacetate. After centrifugation at 10000 x g for 5 min an aliquot of 600 μL of the upper phase was counted for radioactivity in 3 mL liquid scintillation cocktail.

recombinant HDAC1 = target: T2, recombinant HDAC1 (Homo sapiens, UniProt Q13547); experiment: comparative HDAC inhibition assay (Millipore fluorometric kit); assay type: biochemical; settings: recombinant HDAC1, fluorometric substrate; Table 4
T2 construct: purchased Epigenetek
Experimental: (§2) For the direct comparison of HDAC1 vs. HDAC6 inhibition, HDAC activity was analyzed using the HDAC Assay Kit from Millipore (17–356). Briefly, recombinant HDAC1 or recombinant HDAC6 (both purchased from Epigenetek, Purity of HDAC1 is more than 60% and purity HDAC6 is more than 85%). was incubated with the fluorometric HDAC substrate according to the manufacturer’s protocol in the presence of DMSO vehicle or increase compound doses. In a secondary activator reaction, the fluorophore is only cleaved from the deacetylated substrate, allowing for quantification. Fluorescence was quantified on a FLUOstar-Optima or a FLUOstar Omega plate reader (BMG Biosciences).

recombinant HDAC6 = target: T3, recombinant HDAC6 (Homo sapiens, UniProt Q9UBN7); experiment: as above; assay type: biochemical; settings: for IC50: read-out: HDAC6 IC50
T3 construct: purchased Epigenetek
T3 sequence (Q9UBN7 1-1215): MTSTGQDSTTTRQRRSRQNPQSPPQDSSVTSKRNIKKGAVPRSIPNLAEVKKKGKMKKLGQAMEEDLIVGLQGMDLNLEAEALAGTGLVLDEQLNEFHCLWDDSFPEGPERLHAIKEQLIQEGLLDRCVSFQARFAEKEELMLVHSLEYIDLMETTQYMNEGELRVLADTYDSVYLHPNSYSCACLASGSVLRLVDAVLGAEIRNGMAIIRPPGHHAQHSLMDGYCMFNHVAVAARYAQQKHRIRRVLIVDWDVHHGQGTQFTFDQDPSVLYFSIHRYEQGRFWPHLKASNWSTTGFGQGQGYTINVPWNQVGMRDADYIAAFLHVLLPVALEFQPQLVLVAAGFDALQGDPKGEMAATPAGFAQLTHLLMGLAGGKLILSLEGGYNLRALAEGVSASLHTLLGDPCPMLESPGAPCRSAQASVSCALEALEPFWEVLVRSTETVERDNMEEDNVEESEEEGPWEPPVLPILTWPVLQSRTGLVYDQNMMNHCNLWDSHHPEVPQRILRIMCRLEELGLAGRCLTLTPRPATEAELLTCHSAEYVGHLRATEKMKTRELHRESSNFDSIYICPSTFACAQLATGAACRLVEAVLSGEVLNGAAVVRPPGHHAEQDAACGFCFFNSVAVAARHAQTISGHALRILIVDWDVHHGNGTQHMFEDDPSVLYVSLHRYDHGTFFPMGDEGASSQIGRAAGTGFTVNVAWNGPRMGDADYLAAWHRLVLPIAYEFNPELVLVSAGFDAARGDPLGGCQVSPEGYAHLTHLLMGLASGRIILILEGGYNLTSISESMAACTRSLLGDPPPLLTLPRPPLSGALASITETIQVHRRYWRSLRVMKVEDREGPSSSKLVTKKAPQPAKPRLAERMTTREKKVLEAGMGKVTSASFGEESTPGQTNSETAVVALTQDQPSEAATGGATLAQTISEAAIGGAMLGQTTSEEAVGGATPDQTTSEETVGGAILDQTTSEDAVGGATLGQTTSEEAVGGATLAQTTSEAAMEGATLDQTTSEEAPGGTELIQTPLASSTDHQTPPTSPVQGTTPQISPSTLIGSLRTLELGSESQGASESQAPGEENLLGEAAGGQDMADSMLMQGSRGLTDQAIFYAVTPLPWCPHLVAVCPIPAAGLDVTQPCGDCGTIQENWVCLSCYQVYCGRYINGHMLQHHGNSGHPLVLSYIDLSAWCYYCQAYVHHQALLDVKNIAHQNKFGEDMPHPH
Experimental: as §2

HDAC6 = settings: read-out: HDAC6 IC50; Table 4; cited from earlier work
HDAC1 [3] = settings: read-out: HDAC1 IC50; Table 4; cited from earlier work
HDAC1 [4] = settings: Table 4; cited from earlier work

T1 sequence (O09106 whole entry): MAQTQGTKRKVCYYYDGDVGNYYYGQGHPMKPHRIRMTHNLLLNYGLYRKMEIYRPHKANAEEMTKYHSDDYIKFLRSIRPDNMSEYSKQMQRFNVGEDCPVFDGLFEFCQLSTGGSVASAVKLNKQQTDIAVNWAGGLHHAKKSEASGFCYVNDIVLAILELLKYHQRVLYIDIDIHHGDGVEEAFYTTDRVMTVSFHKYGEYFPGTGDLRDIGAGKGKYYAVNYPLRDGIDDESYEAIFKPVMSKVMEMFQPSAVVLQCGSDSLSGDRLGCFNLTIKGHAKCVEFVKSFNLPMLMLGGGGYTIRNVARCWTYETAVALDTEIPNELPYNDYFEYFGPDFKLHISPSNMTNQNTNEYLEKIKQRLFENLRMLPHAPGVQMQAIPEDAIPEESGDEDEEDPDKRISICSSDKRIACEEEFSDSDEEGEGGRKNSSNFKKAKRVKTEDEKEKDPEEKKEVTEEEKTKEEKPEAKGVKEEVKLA
T2 sequence (Q13547 whole entry): as the sequence (O09106 whole entry) above, with K8R, E399D, D424E counted along it

melting point: 349 to 350 °C
SMILES: O=C(NO)c1cccc(S(=O)(=O)N2CCN(c3nc4ccccc4[nH]3)CC2)c1 [Compound 8a, 3-[4(1H -Benzimidazol-2-yl)-piperazin-1-sulfonyl]-N -hydroxy-benzamid]
GFP Induc. [1]: -

melting point: 167 to 169 °C | IC50 [2]: 316000 nM
SMILES: Cn1c(N2CCN(S(=O)(=O)c3cccc(C(=O)NO)c3)CC2)nc2ccccc21 [Compound 8b, 3-[4-(1-Methyl-Benzimidazol-2-yl)-piperazin-1-sulfonyl]-N -hydroxy-benzamid]
GFP Induc. [1]: -

melting point: 257 to 262 °C | IC50 [2]: 216000 nM
SMILES: O=C(NO)c1cccc(S(=O)(=O)N2CCN(c3nc4ccccc4o3)CC2)c1 [Compound 8c, 3-(4-Benzoxazol-2-yl-piperazin-1-sulfonyl)-N -hydroxy-benzamid]
GFP Induc. [1]: -

melting point: 207 to 210 °C | IC50 [2]: 140000 nM
SMILES: O=C(NO)c1cccc(S(=O)(=O)N2CCN(c3nc4ccccc4s3)CC2)c1 [Compound 8d, 3-(4-Benzothiazol-2-yl-piperazin-1-sulfonyl)-N -hydroxy-benzamid]
GFP Induc. [1]: -

melting point: 382 to 383 °C (dec.) | IC50 (HCC4017; Homo sapiens, HCC4017, 96 h): > 10000 nM | IC50 (HCC4018; Homo sapiens, 96 h): > 10000 nM | IC50 [2]: 12400 nM | IC50 (recombinant HDAC1): 6000 ± 2900 nM | IC50 (recombinant HDAC6; Table 3): 1000 nM | Selectivity Index HDAC1/HDAC6 (recombinant HDAC6; Table 4): 6.5 | IC50 (recombinant HDAC6; recombinant HDAC6, fluorometric substrate, Table 4): 930 ± 750 nM
SMILES: O=C(NO)c1ccc(S(=O)(=O)N2CCN(c3nc4ccccc4[nH]3)CC2)cc1 [Compound 9a, 4-[4(1H-Benzimidazol-2-yl)-pipreazin-1-sulfonyl]-N-hydroxy-benzamid]
GFP induction / activity in the LDR assay [1]: inactive | GFP Induc. [1]: - | cellular activity (HCC4017; MTS viability, lung cancer and normal lines): no cellular activity | IC50 (HBEC-34KT; Homo sapiens, 96 h): > 10000 nM | IC50 (HBEC-30KT; Homo sapiens, 96 h): > 10000 nM

Continued, compound first:

SMILES: CCC(=O)CCCCC[C@@H]1NC(=O)[C@H]2CCCCN2C(=O)[C@H]([C@@H](C)CC)NC(=O)[C@H](Cc2cn(OC)c3ccccc23)NC1=O [Apicidin, reference compound]
IC50 (HCC4017; Homo sapiens, HCC4017, 96 h): 120 nM | Selectivity (HBEC-30KT vs HCC4017) (HCC4017): 0.75 | IC50 (HCC4018; Homo sapiens, 96 h): 30 nM | Selectivity (HBEC-34KT vs HCC4018) (HCC4018): 26.3 | selectivity higher by a factor compared to compounds 9b-d (HCC4018; cells derived from patient B): 7–13 fold | IC50 (HBEC-34KT; Homo sapiens, 96 h): 790 nM | IC50 (HBEC-30KT; Homo sapiens, 96 h): 90 nM

SMILES: C/C=C1\NC(=O)[C@H]2CSSCC/C=C/[C@H](CC(=O)N[C@H](C(C)C)C(=O)N2)OC(=O)[C@H](C(C)C)NC1=O [Depsi., Depsipeptide, reference compound]
Selectivity (HBEC-30KT vs HCC4017) (HCC4017): 0.14 | IC50 (HCC4017): 6.5 nM | toxicity to normal vs patient-matched cancer cells (HCC4017; both paired cell lines): more toxic to normal cells than to the patient-matched cancer cells | Selectivity (HBEC-34KT vs HCC4018) (HCC4018): 0.31 | IC50 (HCC4018): 4.2 nM | IC50 (HBEC-34KT): 1.3 nM | IC50 (HBEC-30KT): 0.9 nM

SMILES: CC(/C=C/C(=O)NO)=C\[C@@H](C)C(=O)c1ccc(N(C)C)cc1 [TSA, trichostatin A, reference compound]
IC50 (HDAC6): 8.6 ± 1.4 nM | IC50 (HDAC1 [3]): […] | IC50 (HCC4017): 73 nM | IC50 (HCC4018): 23 nM | IC50 (HBEC-34KT): 346 nM | IC50 (HBEC-30KT): 285 nM
